Starred links: 1 amine or outer side, 2 acyl side, 3 side chain; linkers in the order of their positions; H or OH if unused. Positions of bridges follow the written chain, without caps; N, C: chain ends. Non-standard residues stand in square brackets, D forms with d. Residues, ends and D or L forms follow the SMILES beside them. *: point of attachment. Phe(3,4,5-F3) = N[C@@H](Cc1cc(F)c(F)c(F)c1)C(=O)O; Phe(3,4-Cl2) = N[C@@H](Cc1ccc(Cl)c(Cl)c1)C(=O)O; Phe(Nα-CONH2) = NC(=O)N[C@@H](Cc1ccccc1)C(=O)*; dβ3hPhg = O=C(C[C@H](N[*:1])c1ccccc1)[*:2]; Phe(3-OMe) = COc1cccc(C[C@H](N)C(=O)O)c1; Phe(4-F) = N[C@@H](Cc1ccc(F)cc1)C(=O)O; dPhe(2-Me) = Cc1ccccc1C[C@@H](N)C(=O)O; 2Nal = N[C@@H](Cc1ccc2ccccc2c1)C(=O)O; X10 = CCN(CC)[C@@H](Cc1ccccc1)C(=O)*; Acetyl(4-pyridyl) = O=C(Cc1ccncc1)*; Bta = N[C@@H](Cc1csc2ccccc12)C(=O)O; NEtPhe = CCN[C@@H](Cc1ccccc1)C(=O)O; Hydrocinnamoyl = O=C(CCc1ccccc1)*; Hyp = O=C(O)[C@@H]1C[C@@H](O)CN1; d(hLeu) = CC(C)CC[C@@H](N)C(=O)O; 2Thi = N[C@@H](Cc1cccs1)C(=O)O; Cha = N[C@@H](CC1CCCCC1)C(=O)O; dCha = N[C@H](CC1CCCCC1)C(=O)O; Nle = CCCC[C@H](N)C(=O)O; Orn = NCCC[C@H](N)C(=O)O; Aze = O=C(O)[C@@H]1CCN1; Fluoroacetyl = O=C(CF)*; Propionyl = CCC(=O)*
target: T1, human C5aR(CD88) (Homo sapiens, UniProt P21730); assay: Determination of the IC50 value in an enzyme release assay (functional assay, antagonistic activity); assay type: cell-based; conditions: activity (group)
T1 construct: expressed in transfected cells; host or cells: rat basophilic leukemia cells (RBL)
T1 sequence (P21730 1-350): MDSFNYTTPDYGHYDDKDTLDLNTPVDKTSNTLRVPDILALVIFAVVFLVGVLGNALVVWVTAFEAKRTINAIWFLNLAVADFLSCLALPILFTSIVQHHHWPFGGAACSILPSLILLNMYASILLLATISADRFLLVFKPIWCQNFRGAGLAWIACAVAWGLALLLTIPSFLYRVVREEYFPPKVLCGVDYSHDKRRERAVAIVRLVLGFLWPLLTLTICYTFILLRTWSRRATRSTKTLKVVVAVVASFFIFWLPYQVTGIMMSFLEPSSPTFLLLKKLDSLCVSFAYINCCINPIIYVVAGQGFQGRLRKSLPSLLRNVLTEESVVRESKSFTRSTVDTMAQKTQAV

Compound	IC50 [µM]
CC(=O)N[C@@H](Cc1ccccc1)C(=O)N[C@@H](CCCN)C(=O)N1CCC[C@H]1C(=O)N[C@H](CCC(C)C)C(=O)N[C@@H](Cc1ccc(F)cc1)C(=O)N[C@@H](Cc1ccccc1)C(N)=O [Compound 302, Ac-Phe-Orn-Pro-hle-Pff-Phe-NH2] (Ac-F[Orn]P[d(hLeu)][Phe(4-F)]F-NH2)	0.05 to 0.2

same assay, conditions: activity (group), antagonistic activity; IC50 group in enzyme release assay, RBL cells expressing human C5aR(CD88)

Compound	IC50 [µM]
NCCC[C@H](NC(=O)[C@H](Cc1ccccc1)NC(=O)CF)C(=O)N1CC[C@H]1C(=O)N[C@H](CC1CCCCC1)C(=O)N[C@@H](Cc1csc2ccccc12)C(=O)N[C@@H](Cc1ccccc1)C(N)=O [Compound 321, FAc-Phe-Orn-Aze-cha-Bta-Phe-NH2] (Fluoroacetyl-F[Orn][Aze][dCha][Bta]F-NH2)	0.02 to 0.05

same assay, conditions: antagonistic activity; IC50 group in enzyme release assay, RBL cells expressing human C5aR(CD88); read-out: activity (group)

Compound	IC50 [µM]
CC(=O)N[C@@H](Cc1ccccc1)C(=O)N[C@@H](CCCN)C(=O)N1CCC[C@H]1C(=O)N[C@H](CCC(C)C)C(=O)N[C@@H](Cc1ccc(F)cc1)C(=O)N[C@@H](Cc1ccc2ccccc2c1)C(N)=O [Compound 297, Ac-Phe-Orn-Pro-hle-Pff-2Ni—NH2] (Ac-F[Orn]P[d(hLeu)][Phe(4-F)][2Nal]-NH2)	0.05 to 0.2
CC(=O)N[C@@H](Cc1ccccc1)C(=O)N[C@@H](CCCN)C(=O)N1CCC[C@H]1C(=O)N[C@H](CCC(C)C)C(=O)N[C@@H](Cc1ccc(F)cc1)C(=O)N[C@@H](CC1CCCCC1)C(N)=O [Compound 298, Ac-Phe-Orn-Pro-hle-Pff-Cha-NH2] (Ac-F[Orn]P[d(hLeu)][Phe(4-F)][Cha]-NH2)	0.05 to 0.2
CC(=O)N[C@@H](Cc1ccccc1)C(=O)N[C@@H](CCCN)C(=O)N1CCC[C@H]1C(=O)N[C@H](CCC(C)C)C(=O)N[C@@H](Cc1ccc(F)cc1)C(=O)N[C@@H](Cc1ccc(Cl)c(Cl)c1)C(N)=O [Compound 299, Ac-Phe-Orn-Pro-hle-Pff-Eaa-NH2] (Ac-F[Orn]P[d(hLeu)][Phe(4-F)][Phe(3,4-Cl2)]-NH2)	0.05 to 0.2
COc1cccc(C[C@H](NC(=O)[C@H](Cc2ccc(F)cc2)NC(=O)[C@@H](CCC(C)C)NC(=O)[C@@H]2CCCN2C(=O)[C@H](CCCN)NC(=O)[C@H](Cc2ccccc2)NC(C)=O)C(N)=O)c1 [Compound 300, Ac-Phe-Orn-Pro-hle-Pff-Mmy-NH2] (Ac-F[Orn]P[d(hLeu)][Phe(4-F)][Phe(3-OMe)]-NH2)	0.05 to 0.2
CC(=O)N[C@@H](Cc1ccccc1)C(=O)N[C@@H](CCCN)C(=O)N1CCC[C@H]1C(=O)N[C@H](CCC(C)C)C(=O)N[C@@H](Cc1ccc(F)cc1)C(=O)N[C@@H](Cc1ccc(F)cc1)C(N)=O [Compound 301, Ac-Phe-Orn-Pro-hle-Pff-Pff-NH2] (Ac-F[Orn]P[d(hLeu)][Phe(4-F)][Phe(4-F)]-NH2)	0.05 to 0.2
CC(=O)N[C@@H](Cc1ccccc1)C(=O)N[C@@H](CCCN)C(=O)N1CCC[C@H]1C(=O)N[C@H](CCC(C)C)C(=O)N[C@@H](Cc1ccccc1)C(=O)N[C@@H](Cc1ccccc1)C(N)=O [Compound 304, Ac-Phe-Orn-Pro-hle-Phe-Phe-NH2] (Ac-F[Orn]P[d(hLeu)]FF-NH2)	0.05 to 0.2
CC(=O)N[C@@H](Cc1ccccc1)C(=O)N[C@@H](CCCN)C(=O)N1CCC[C@H]1C(=O)N[C@H](CCC(C)C)C(=O)N[C@@H](Cc1cc(F)c(F)c(F)c1)C(=O)N[C@@H](Cc1ccccc1)C(N)=O [Compound 305, Ac-Phe-Orn-Pro-hle-Tff-Phe-NH2] (Ac-F[Orn]P[d(hLeu)][Phe(3,4,5-F3)]F-NH2)	0.05 to 0.2
CC(=O)N[C@@H](Cc1ccccc1)C(=O)N[C@@H](CCCN)C(=O)N1CCC[C@H]1C(=O)N[C@H](CCC(C)C)C(=O)N[C@@H](Cc1c[nH]c2ccccc12)C(=O)N[C@@H](Cc1ccccc1)C(N)=O [Compound 306, Ac-Phe-Orn-Pro-hle-Trp-Phe-NH2] (Ac-F[Orn]P[d(hLeu)]WF-NH2)	0.05 to 0.2
CC[C@@H](C)[C@@H](NC(=O)[C@@H]1CCCN1C(=O)[C@H](CCCN)NC(=O)[C@H](Cc1ccccc1)NC(C)=O)C(=O)N[C@@H](Cc1c[nH]c2ccccc12)C(=O)N[C@@H](Cc1ccccc1)C(N)=O [Compound 307, Ac-Phe-Orn-Pro-ile-Trp-Phe-NH2] (Ac-F[Orn]P[dI]WF-NH2)	0.005 to 0.01
CC(=O)N[C@@H](Cc1ccccc1)C(=O)N[C@@H](CCCN)C(=O)N1CCC[C@H]1C(=O)N[C@H](Cc1ccccc1C)C(=O)N[C@@H](Cc1csc2ccccc12)C(=O)N[C@@H](Cc1ccccc1)C(N)=O [Compound 308, Ac-Phe-Orn-Pro-omf-Bta-Phe-NH2] (Ac-F[Orn]P[dPhe(2-Me)][Bta]F-NH2)	0.05 to 0.2
CC(=O)N[C@@H](Cc1ccccc1)C(=O)N[C@@H](CCCN)C(=O)N[C@@H](CO)C(=O)N[C@H](CC1CCCCC1)C(=O)N[C@@H](Cc1csc2ccccc12)C(=O)N[C@@H](Cc1ccccc1)C(N)=O [Compound 309, Ac-Phe-Orn-Ser-cha-Bta-Phe-NH2] (Ac-F[Orn]S[dCha][Bta]F-NH2)	0.02 to 0.05
CC(=O)N[C@@H](CO)C(=O)N[C@@H](Cc1ccccc1)C(=O)N[C@@H](CCCN)C(=O)N1CC[C@H]1C(=O)N[C@H](CC1CCCCC1)C(=O)N[C@@H](Cc1csc2ccccc12)C(=O)N[C@@H](Cc1ccccc1)C(N)=O [Compound 310, Ac-Ser-Phe-Orn-Aze-cha-Bta-Phe-NH2] (Ac-SF[Orn][Aze][dCha][Bta]F-NH2)	0.01 to 0.02
CC(=O)N[C@@H](Cc1cccs1)C(=O)N[C@H]1CCCNC(=O)[C@H](Cc2ccccc2)NC(=O)[C@H](Cc2csc3ccccc23)NC(=O)[C@@H](CCC(C)C)NC(=O)[C@@H]2CCCN2C1=O [Compound 311, Ac-Thi-[Orn-Pro-hle-Bta-Phe]] (Ac-[2Thi][Orn]P[d(hLeu)][Bta]F; lactam 2-C)	0.05 to 0.2
CC(=O)N[C@@H](Cc1cccs1)C(=O)N[C@@H](CCCN)C(=O)N1CCC[C@H]1C(=O)N[C@H](CC1CCCCC1)C(=O)N[C@@H](Cc1csc2ccccc12)C(=O)N[C@@H](Cc1ccccc1)C(N)=O [Compound 312, Ac-Thi-Orn-Pro-cha-Bta-Phe-NH2] (Ac-[2Thi][Orn]P[dCha][Bta]F-NH2)	0.02 to 0.05
CC(=O)N[C@@H](Cc1cccs1)C(=O)N[C@@H](CCCN)C(=O)N1CCC[C@H]1C(=O)N[C@H](CC1CCCCC1)C(=O)N[C@@H](Cc1csc2ccccc12)C(=O)N[C@@H](Cc1cccs1)C(N)=O [Compound 313, Ac-Thi-Orn-Pro-cha-Bta-Thi-NH2] (Ac-[2Thi][Orn]P[dCha][Bta][2Thi]-NH2)	0.02 to 0.05
CC(=O)N[C@H](C(=O)N[C@@H](Cc1ccccc1)C(=O)N[C@@H](CCCN)C(=O)N1CC[C@H]1C(=O)N[C@H](CC1CCCCC1)C(=O)N[C@@H](Cc1csc2ccccc12)C(=O)N[C@@H](Cc1ccccc1)C(N)=O)[C@@H](C)O [Compound 314, Ac-Thr-Phe-Orn-Aze-cha-Bta-Phe-NH2] (Ac-TF[Orn][Aze][dCha][Bta]F-NH2)	0.02 to 0.05
CCCC[C@@H]1NC(=O)[C@H](Cc2csc3ccccc23)NC(=O)[C@@H](CC2CCCCC2)NC(=O)[C@@H]2CCCN2C(=O)[C@@H](NCc2ccccc2)CCCNC1=O [Compound 315, Bzl-[Orn-Pro-cha-Bta-Nle]]	0.05 to 0.2
CCC(=O)N[C@@H](Cc1ccccc1)C(=O)N[C@@H](CCCN)C(=O)N1CCC[C@H]1C(=O)N[C@H](CC1CCCCC1)C(=O)N[C@@H](Cc1csc2ccccc12)C(=O)N[C@@H](Cc1ccccc1)C(N)=O [Compound 316, CH3CH2CO-Phe-Orn-Pro-cha-Bta-Phe-NH2] (Propionyl-F[Orn]P[dCha][Bta]F-NH2)	0.02 to 0.05
CCCC[C@@H]1NC(=O)[C@H](Cc2c[nH]c3ccccc23)NC(=O)[C@@H](CCC(C)C)NC(=O)[C@H](CO)NC(=O)[C@@H](NC(=O)[C@H](Cc2ccccc2)N(CC)CC)CCCNC1=O [Compound 317, Def-[Orn-Ser-hle-Trp-Nle]] (X10-[Orn]S[d(hLeu)]W[Nle]; lactam 1-C)	0.05 to 0.2
N[C@@H](CC(=O)N[C@@H](Cc1ccccc1)C(=O)N[C@H]1CCCNC(=O)[C@H](Cc2ccccc2)NC(=O)[C@H](Cc2c[nH]c3ccccc23)NC(=O)[C@@H](CC2CCCCC2)NC(=O)[C@@H]2C[C@@H](O)CN2C1=O)c1ccccc1 [Compound 318, Eby-Phe-[Orn-Hyp-cha-Trp-Phe]] (dβ3hPhg-F[Orn][Hyp][dCha]WF; lactam 2-C)	0.05 to 0.2
CCCC[C@@H]1NC(=O)[C@H](Cc2ccc(F)cc2)NC(=O)[C@@H](CCC(C)C)NC(=O)[C@@H]2CCCN2C(=O)[C@@H](NC(=O)[C@H](Cc2ccccc2)NCC)CCCNC1=O [Compound 319, Eth-Phe-[Orn-Pro-hle-Pff-Nle]] (H-[NEtPhe][Orn]P[d(hLeu)][Phe(4-F)][Nle]; lactam 2-C)	0.05 to 0.2
NC(=O)N[C@@H](Cc1ccccc1)C(=O)N[C@H]1CCCNC(=O)[C@H](Cc2ccccc2)NC(=O)[C@H](Cc2c[nH]c3ccccc23)NC(=O)[C@@H](CC2CCCCC2)NC(=O)[C@@H]2C[C@@H](O)CN2C1=O [Compound 323, Fai-Phe-[Orn-Hyp-cha-Trp-Phe]] ({Phe(Nα-CONH2)}-[Orn][Hyp][dCha]WF; lactam 1-C)	0.05 to 0.2
NCCC[C@H](NC(=O)CCc1ccccc1)C(=O)N1CCC[C@H]1C(=O)N[C@H](CC1CCCCC1)C(=O)N[C@@H](Cc1csc2ccccc12)C(=O)N[C@@H](Cc1ccccc1)C(N)=O [Compound 324, Faz-Orn-Pro-cha-Bta-Phe-NH2] (Hydrocinnamoyl-[Orn]P[dCha][Bta]F-NH2)	0.05 to 0.2
CCCC[C@@H]1NC(=O)[C@H](Cc2c[nH]c3ccccc23)NC(=O)[C@@H](CC2CCCCC2)NC(=O)[C@@H]2CCCN2C(=O)[C@@H](NC(=O)[C@H](Cc2ccccc2)NC(=O)Cc2ccncc2)CCCNC1=O [Compound 325, Fbi-Phe-[Orn-Pro-cha-Trp-Nle]] ({Acetyl(4-pyridyl)}-F[Orn]P[dCha]W[Nle]; lactam 2-C)	0.05 to 0.2

Source: patent publication US20080161232A1, “C5a Receptor Antagonist” (JERINI AG, priority 2005, published 2008)
